Results taken from ChEMBL document CHEMBL5543142, “Discovery of YFJ-36: Design, Synthesis, and Antibacterial Activities of Catechol-Conjugated β-Lactams against Gram-Negative Bacteria” (J Med Chem, 2024).

Legend:
Escherichia coli [1] = experiment: Antibacterial activity against ESBL-producing multidrug-resistant Escherichia coli clinical isolate 14-1 assessed as inhibition of bacterial growth incubated for 18 to 20 hrs by two fold serial dilution assay; assay type: functional; settings: time 18-20 hrs
Escherichia coli [2] = experiment: Antibacterial activity against ESBL-producing multidrug-resistant Escherichia coli clinical isolate 14-2 assessed as inhibition of bacterial growth incubated for 18 to 20 hrs by two fold serial dilution assay; assay type: functional; settings: time 18-20 hrs
Escherichia coli [3] = experiment: Antibacterial activity against ESBL-producing multidrug-resistant Escherichia coli clinical isolate 14-4 assessed as inhibition of bacterial growth incubated for 18 to 20 hrs by two fold serial dilution assay; assay type: functional; settings: time 18-20 hrs
Klebsiella pneumoniae [4] = experiment: Antibacterial activity against KPC-2 producing multidrug-resistant Klebsiella pneumoniae clinical isolate 15-1 assessed as inhibition of bacterial growth incubated for 18 to 20 hrs by two fold serial dilution assay; assay type: functional; settings: time 18-20 hrs
Klebsiella pneumoniae [5] = experiment: Antibacterial activity against KPC-2 producing multidrug-resistant Klebsiella pneumoniae clinical isolate 15-2 assessed as inhibition of bacterial growth incubated for 18 to 20 hrs by two fold serial dilution assay; assay type: functional; settings: time 18-20 hrs
Klebsiella pneumoniae [6] = experiment: Antibacterial activity against KPC-2 producing multidrug-resistant Klebsiella pneumoniae clinical isolate 15-5 assessed as inhibition of bacterial growth incubated for 18 to 20 hrs by two fold serial dilution assay; assay type: functional; settings: time 18-20 hrs
Escherichia coli [7] = experiment: Antibacterial activity against Escherichia coli ATCC35218 assessed as inhibition of bacterial growth incubated for 18 to 20 hrs by two fold serial dilution assay; assay type: functional; settings: time 18-20 hrs
Pseudomonas aeruginosa [8] = experiment: Antibacterial activity against IMP-4 producing multidrug-resistant Pseudomonas aeruginosa clinical isolate 17-13 assessed as inhibition of bacterial growth incubated for 18 to 20 hrs by two fold serial dilution assay; assay type: functional; settings: time 18-20 hrs
Pseudomonas aeruginosa [9] = experiment: Antibacterial activity against IMP-4 producing multidrug-resistant Pseudomonas aeruginosa clinical isolate 17-1 assessed as inhibition of bacterial growth incubated for 18 to 20 hrs by two fold serial dilution assay; assay type: functional; settings: time 18-20 hrs
Pseudomonas aeruginosa [10] = experiment: Antibacterial activity against IMP-4 producing multidrug-resistant Pseudomonas aeruginosa clinical isolate 19-17 assessed as inhibition of bacterial growth incubated for 18 to 20 hrs by two fold serial dilution assay; assay type: functional; settings: time 18-20 hrs
Acinetobacter baumannii [11] = experiment: Antibacterial activity against OXA-23 producing multidrug-resistant Acinetobacter baumannii clinical isolate 17-2 assessed as inhibition of bacterial growth incubated for 18 to 20 hrs by two fold serial dilution assay; assay type: functional; settings: time 18-20 hrs
Acinetobacter baumannii [12] = experiment: Antibacterial activity against OXA-23 producing multidrug-resistant Acinetobacter baumannii clinical isolate 17-3 assessed as inhibition of bacterial growth incubated for 18 to 20 hrs by two fold serial dilution assay; assay type: functional; settings: time 18-20 hrs
Pseudomonas aeruginosa [13] = experiment: Antibacterial activity against IMP-4 producing multidrug-resistant Pseudomonas aeruginosa clinical isolate 19-5 assessed as inhibition of bacterial growth incubated for 18 to 20 hrs by two fold serial dilution assay; assay type: functional; settings: time 18-20 hrs
Pseudomonas aeruginosa [14] = experiment: Antibacterial activity against IMP-4 producing multidrug-resistant Pseudomonas aeruginosa clinical isolate 19-1 assessed as inhibition of bacterial growth incubated for 18 to 20 hrs by two fold serial dilution assay; assay type: functional; settings: time 18-20 hrs
Acinetobacter baumannii [15] = experiment: Antibacterial activity against OXA-23 producing multidrug-resistant Acinetobacter baumannii clinical isolate 17-5 assessed as inhibition of bacterial growth incubated for 18 to 20 hrs by two fold serial dilution assay; assay type: functional; settings: time 18-20 hrs
Acinetobacter baumannii [16] = experiment: Antibacterial activity against OXA-23 producing multidrug-resistant Acinetobacter baumannii clinical isolate 17-6 assessed as inhibition of bacterial growth incubated for 18 to 20 hrs by two fold serial dilution assay; assay type: functional; settings: time 18-20 hrs
Acinetobacter baumannii [17] = experiment: Antibacterial activity against OXA-23 producing multidrug-resistant Acinetobacter baumannii clinical isolate 17-7 assessed as inhibition of bacterial growth incubated for 18 to 20 hrs by two fold serial dilution assay; assay type: functional; settings: time 18-20 hrs
Acinetobacter baumannii [18] = experiment: Antibacterial activity against OXA-23 producing multidrug-resistant Acinetobacter baumannii clinical isolate 17-8 assessed as inhibition of bacterial growth incubated for 18 to 20 hrs by two fold serial dilution assay; assay type: functional; settings: time 18-20 hrs
Klebsiella pneumoniae [19] = experiment: Antibacterial activity against KPC-2 producing multidrug-resistant Klebsiella pneumoniae clinical isolate 15-3 assessed as inhibition of bacterial growth incubated for 18 to 20 hrs by two fold serial dilution assay; assay type: functional; settings: time 18-20 hrs
Escherichia coli [20] = experiment: Antibacterial activity against Escherichia coli NCTC-13353 assessed as inhibition of bacterial growth incubated for 18 to 20 hrs in presence of CAMHB medium by two fold serial dilution assay; assay type: functional; settings: time 18-20 hrs
Escherichia coli [21] = experiment: Antibacterial activity against Escherichia coli ATCC-35218 assessed as inhibition of bacterial growth incubated for 18 to 20 hrs in presence of CAMHB medium by two fold serial dilution assay; assay type: functional; settings: time 18-20 hrs
Klebsiella pneumoniae [22] = experiment: Antibacterial activity against Klebsiella pneumoniae ATCC BAA-1898 assessed as inhibition of bacterial growth incubated for 18 to 20 hrs in presence of CAMHB medium by two fold serial dilution assay; assay type: functional; settings: time 18-20 hrs
Escherichia coli [23] = experiment: Antibacterial activity against Escherichia coli NCTC-13353 assessed as inhibition of bacterial growth incubated for 18 to 20 hrs in presence of iron-depleted CAMHB medium by two fold serial dilution assay; assay type: functional; settings: time 18-20 hrs
Escherichia coli [24] = experiment: Antibacterial activity against Escherichia coli ATCC-35218 assessed as inhibition of bacterial growth incubated for 18 to 20 hrs in presence of iron-depleted CAMHB medium by two fold serial dilution assay; assay type: functional; settings: time 18-20 hrs
Klebsiella pneumoniae [25] = experiment: Antibacterial activity against Klebsiella pneumoniae ATCC BAA-1898 assessed as inhibition of bacterial growth incubated for 18 to 20 hrs in presence of iron-depleted CAMHB medium by two fold serial dilution assay; assay type: functional; settings: time 18-20 hrs
hERG (KCNH2) = hERG (KCNH2) (Homo sapiens, UniProt Q12809); experiment: Inhibition of hERG at 40 uM by whole cell Qpatch assay relative to control; assay type: toxicity
Sequence of hERG (KCNH2) (Q12809 whole entry): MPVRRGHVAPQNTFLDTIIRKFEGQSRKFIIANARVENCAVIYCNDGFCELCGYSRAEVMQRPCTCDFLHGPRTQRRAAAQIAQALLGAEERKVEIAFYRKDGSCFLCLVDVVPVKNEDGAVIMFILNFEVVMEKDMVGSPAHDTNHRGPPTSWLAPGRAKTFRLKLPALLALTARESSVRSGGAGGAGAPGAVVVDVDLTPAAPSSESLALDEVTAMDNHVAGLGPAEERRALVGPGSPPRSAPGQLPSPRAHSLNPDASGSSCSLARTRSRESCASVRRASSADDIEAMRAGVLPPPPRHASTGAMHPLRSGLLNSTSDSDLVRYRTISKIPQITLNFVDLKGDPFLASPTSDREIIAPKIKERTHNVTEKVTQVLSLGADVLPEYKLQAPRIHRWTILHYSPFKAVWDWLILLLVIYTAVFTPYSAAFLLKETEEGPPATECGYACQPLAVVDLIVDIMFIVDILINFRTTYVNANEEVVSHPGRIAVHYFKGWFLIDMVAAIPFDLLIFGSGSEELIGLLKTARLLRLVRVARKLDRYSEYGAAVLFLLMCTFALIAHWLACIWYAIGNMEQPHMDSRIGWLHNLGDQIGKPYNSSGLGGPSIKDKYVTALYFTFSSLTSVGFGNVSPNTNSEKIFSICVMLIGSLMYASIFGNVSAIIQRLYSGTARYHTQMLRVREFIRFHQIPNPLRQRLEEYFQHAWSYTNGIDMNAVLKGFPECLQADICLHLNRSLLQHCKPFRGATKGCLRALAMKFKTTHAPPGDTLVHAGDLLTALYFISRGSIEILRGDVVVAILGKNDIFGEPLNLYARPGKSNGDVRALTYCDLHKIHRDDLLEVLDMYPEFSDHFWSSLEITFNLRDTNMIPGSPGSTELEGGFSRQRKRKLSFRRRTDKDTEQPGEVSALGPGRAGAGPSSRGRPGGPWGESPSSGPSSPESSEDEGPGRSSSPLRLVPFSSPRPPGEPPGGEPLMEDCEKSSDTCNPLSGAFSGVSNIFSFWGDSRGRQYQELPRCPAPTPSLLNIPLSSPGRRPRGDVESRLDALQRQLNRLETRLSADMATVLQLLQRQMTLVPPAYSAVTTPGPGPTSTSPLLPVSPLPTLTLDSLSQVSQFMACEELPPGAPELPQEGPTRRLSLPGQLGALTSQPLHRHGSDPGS

[26] = target: Voltage-gated inwardly rectifying potassium channel KCNH2 (Homo sapiens, UniProt Q12809); experiment: Inhibition of hERG by whole cell Qpatch assay; assay type: toxicity
Sequence of Voltage-gated inwardly rectifying potassium channel KCNH2 (Q12809 whole entry): as above

[27] = AUC (0 to infinity) in ICR mouse at 20 mg/kg,iv administration measured upto 4 hrs by LC-MS/MS analysis; assay type: ADME, organism-based; settings: in vivo
[28] = Clearance in ICR mouse at 20 mg/kg,iv administration measured upto 4 hrs by LC-MS/MS analysis; assay type: ADME, organism-based; settings: in vivo
[29] = Half life in ICR mouse at 20 mg/kg,iv administration measured upto 4 hrs by LC-MS/MS analysis; assay type: ADME, organism-based; settings: in vivo
[30] = MRT in ICR mouse at 20 mg/kg,iv administration measured upto 4 hrs by LC-MS/MS analysis; assay type: ADME, organism-based; settings: in vivo
[31] = Volume of distribution at steady state in ICR mouse at 20 mg/kg,iv administration measured upto 4 hrs by LC-MS/MS analysis; assay type: ADME, organism-based; settings: in vivo, read-out: Vdss
[32] = AUC (0 to infinity) in ICR mouse at 20 mg/kg,iv administration measured upto 6 hrs by LC-MS/MS analysis; assay type: ADME, organism-based; settings: in vivo
[33] = Clearance in ICR mouse at 20 mg/kg,iv administration measured upto 6 hrs by LC-MS/MS analysis; assay type: ADME, organism-based; settings: in vivo
[34] = Half life in ICR mouse at 20 mg/kg,iv administration measured upto 6 hrs by LC-MS/MS analysis; assay type: ADME, organism-based; settings: in vivo
[35] = MRT in ICR mouse at 20 mg/kg,iv administration measured upto 6 hrs by LC-MS/MS analysis; assay type: ADME, organism-based; settings: in vivo
[36] = Volume of distribution at steady state in ICR mouse at 20 mg/kg,iv administration measured upto 6 hrs by LC-MS/MS analysis; assay type: ADME, organism-based; settings: in vivo, read-out: Vdss
[37] = Plasma protein binding in mouse incubated for 35 mins by LC-MS/MS analysis; assay type: ADME, cell-free; settings: read-out: PPB (converted)

SMILES	MIC (Escherichia coli [1]) [µg/mL]	MIC (Escherichia coli [2]) [µg/mL]	MIC (Escherichia coli [3]) [µg/mL]	MIC (Klebsiella pneumoniae [4]) [µg/mL]	MIC (Klebsiella pneumoniae [5]) [µg/mL]	MIC (Klebsiella pneumoniae [6]) [µg/mL]	MIC (Escherichia coli [7]) [µg/mL]	MIC (Pseudomonas aeruginosa [8]) [µg/mL]	MIC (Pseudomonas aeruginosa [9]) [µg/mL]	MIC (Pseudomonas aeruginosa [10]) [µg/mL]	MIC (Acinetobacter baumannii [11]) [µg/mL]	MIC (Acinetobacter baumannii [12]) [µg/mL]	MIC (Pseudomonas aeruginosa [13]) [µg/mL]	MIC (Pseudomonas aeruginosa [14]) [µg/mL]	MIC (Acinetobacter baumannii [15]) [µg/mL]	MIC (Acinetobacter baumannii [16]) [µg/mL]	MIC (Acinetobacter baumannii [17]) [µg/mL]	MIC (Acinetobacter baumannii [18]) [µg/mL]	MIC (Klebsiella pneumoniae [19]) [µg/mL]	MIC (Escherichia coli [20]) [µg/mL]	other results
Nc1nc(/C(=N/O[C@H](C(=O)O)C2CCC(F)(F)CC2)C(=O)N[C@@H]2C(=O)N3C(C(=O)O)=C(CSCCNC(=O)c4ccc(O)c(O)c4Cl)CS[C@H]23)cs1.O=C(O)C(F)(F)F	0.25	1	0.125	0.25	1	1	0.125	0.125	64	0.25	0.5	0.5	2	8	0.25	0.5	0.5	1	0.25	1	MIC (Escherichia coli [21]): 2 µg/mL; MIC (Klebsiella pneumoniae [22]): 8 µg/mL; MIC (Escherichia coli [23]): 1 µg/mL; MIC (Escherichia coli [24]): 0.5 µg/mL; MIC (Klebsiella pneumoniae [25]): 2 µg/mL; inhibition at 40 µM (hERG (KCNH2)): 23.8%; IC50 [26]: > 40 µM
Cc1ccc(S(=O)(=O)O)cc1.Nc1nc(/C(=N/O[C@@H](C(=O)O)C2CCC(F)(F)CC2)C(=O)N[C@@H]2C(=O)N3C(C(=O)O)=C(CSCCNC(=O)c4ccc(O)c(O)c4Cl)CS[C@H]23)cs1	–	–	–	–	–	–	–	–	–	–	–	–	–	–	–	–	–	–	–	–	AUC(0-inf) [27]: 2160 ng·h/mL; clearance [28]: 160 mL/min/kg; half-life [29]: 19.8 min; MRT [30]: 9 min; Vd [31]: 1.44 L/kg
C[C@@](O/N=C(\C(=O)N[C@@H]1C(=O)N2C(C(=O)O)=C(CSCCNC(=O)c3ccc(O)c(O)c3Cl)CS[C@H]12)c1nc(N)sc1Cl)(C(=O)O)C(F)(F)F.O=C(O)C(F)(F)F	0.06	0.5	≤ 0.03	0.25	0.5	0.125	0.06	0.125	8	0.06	0.06	0.5	0.25	1	0.125	0.5	0.5	0.125	0.5	0.5	MIC (Escherichia coli [21]): 0.5 µg/mL; MIC (Klebsiella pneumoniae [22]): 16 µg/mL; MIC (Escherichia coli [23]): 0.25 µg/mL; MIC (Escherichia coli [24]): ≤ 0.03 µg/mL; MIC (Klebsiella pneumoniae [25]): 4 µg/mL; AUC(0-inf) [32]: 968 ng·h/mL; clearance [33]: 397 mL/min/kg; half-life [34]: 18 min; MRT [35]: 18 min; Vd [36]: 7.74 L/kg; fraction unbound at 35 min [37]: 0.066; inhibition at 40 µM (hERG (KCNH2)): 40.5%; IC50 [26]: > 40 µM
